Earlier results on one molecule are cited in patent US20180071205A1, “Stable Vitamin C System” (priority 2014, published 2018).

For data set [1] the following is noted: aqueous solutions; accelerated by alkalines, iron and copper; sodium salt at pH >6.
The conditions of data set [2]: normal water-based preparation.

Consider `O=C1O[C@H]([C@@H](O)CO)C(O)=C1O` [L-ascorbic acid], for which the “stability to oxidation by air” value in data set [1] is “rapidly oxidized by air”. For the same molecule, in data set [2], the pH result is reported as “around 2”.
